Experimental data taken from patent US20240139144A1, “COPPER CHELATOR, ANTICANCER AGENT AND PROPHYLACTIC OR THERAPEUTIC AGENT FOR WILSON'S DISEASE” (Murata Manufacturing Co., Ltd., priority 2021, published 2024).

Legend:
[1] = system: Candida albicans; settings: against Candida albicans; cited from earlier work
[2] = system: gram-positive bacteria; settings: against gram-positive bacteria; cited from earlier work
[3] = Evaluation of copper chelating action by LC-MS after addition of CuCl2; type: binding; settings: for copper chelating action: 10 mM compound in methanol, aqueous CuCl2 added to final 100 mM, shaken at 30° C. for 60 minutes, LC-MS; for peak of the ion of the compound (free compound) in the sample in which a copper ion was added / peak of the ion of the complex of the compound and a copper ion in the sample in which a copper ion was added: LC-MS positive mode, CuCl2 100 mM, 30° C., 60 minutes; for peak of the ion of the compound (free compound) in the sample in which a copper ion was added: m/z 379.00 for (1a), m/z 397.00 for (2a); for peak of the ion of the complex of the compound and a copper ion in the sample in which a copper ion was added: m/z 441.00 for (1a), m/z 459.00 for (2a)
Method: (Method for Evaluating Copper Chelating Action)
An aqueous CuCl2 solution was added to a methanol solution of 10 mM compound (1a) or 10 mM compound (2a) so as to have a final concentration of 100 mM, and the mixture was shaken at 30° C. for 60 minutes, and then analyzed by LC-MS. A methanol solution of 10 mM compound (la) or 10 mM compound (2a) to which an aqueous CuCl2 solution was not added was also analyzed by LC-MS.
(LC-MS measurement conditions)
Pure water to which 0.1% formic acid was added was used as a solvent A, and acetonitrile was used as a solvent B. The samples were separated on a reversed-phase column (Cosmosil 5.0C 18-MS-II 2.0×100 mm (manufactured by Nacalai Tesque, Inc.)). At this time, the flow rate was set to 0.2 ml/min, and elution was performed in a gradient mode in which the proportion of the solvent B was set to 2% until 2 minutes, and then changed from 2 to 98% from 2 to 15 minutes. The eluted sample was ionized by electrospray ionization method in a positive mode.

| Molecule | antimicrobial activity [1] | antimicrobial activity [2] | copper chelating action [3] | peak of the ion of the compound (free compound) in the sample in which a copper ion was added [3] | peak of the ion of the complex of the compound and a copper ion in the sample in which a copper ion was added [3] | copper chelating action compared between compounds ([3]; comparison between FIGS. 1 and 2 and FIGS. 4 and 5) |
| --- | --- | --- | --- | --- | --- | --- |
| hazimycin A | antimicrobial activity | antimicrobial activity | – | – | – | – |
| [C-]#[N+][C@@H](Cc1ccc(O)c(-c2cc(C[C@H](NC=O)C(N)=O)ccc2O)c1)C(N)=O [compound (2a)] | – | – | has a copper chelating action | small | observed | – |
| [C-]#[N+][C@@H](Cc1ccc(O)c(-c2cc(C[C@H]([N+]#[C-])C(N)=O)ccc2O)c1)C(N)=O [compound (1a)] | – | – | has a copper chelating action | not observed | observed | stronger than that of the compound (2a) |
